# Laboratory results as given in ChEMBL document CHEMBL4765227, “Hit to lead optimization of a series of N-[4-(1,3-benzothiazol-2-yl)phenyl]acetamides as monoacylglycerol lipase inhibitors with potential anticancer activity” (Eur J Med Chem, 2016).
# What was measured:
# Type in all cases: functional
# Settings in all cases: read-out: GI
# SF-295 = experiment: Growth inhibition of human SF-295 cells at 10 uM incubated for 48 hrs by sulforhodamine B assay relative to control
# NCI-H226 = experiment: Growth inhibition of human NCI-H226 cells at 10 uM incubated for 48 hrs by sulforhodamine B assay relative to control
# OVCAR-4 = experiment: Growth inhibition of human OVCAR-4 cells at 10 uM incubated for 48 hrs by sulforhodamine B assay relative to control
# NCI-H522 = experiment: Growth inhibition of human NCI-H522 cells at 10 uM incubated for 48 hrs by sulforhodamine B assay relative to control
# MCF7 = experiment: Growth inhibition of human MCF7 cells at 10 uM incubated for 48 hrs by sulforhodamine B assay relative to control
# K562 = experiment: Growth inhibition of human K562 cells at 10 uM incubated for 48 hrs by sulforhodamine B assay relative to control
# PC-3 = experiment: Growth inhibition of human PC-3 cells at 10 uM incubated for 48 hrs by sulforhodamine B assay relative to control
# ACHN = experiment: Growth inhibition of human ACHN cells at 10 uM incubated for 48 hrs by sulforhodamine B assay relative to control
# Malme-3M = experiment: Growth inhibition of human Malme-3M cells at 10 uM incubated for 48 hrs by sulforhodamine B assay relative to control
# HT-29 = experiment: Growth inhibition of human HT-29 cells at 10 uM incubated for 48 hrs by sulforhodamine B assay relative to control
# SF-268 = experiment: Growth inhibition of human SF-268 cells at 10 uM incubated for 48 hrs by sulforhodamine B assay relative to control
# BT-549 = experiment: Growth inhibition of human BT-549 cells at 10 uM incubated for 48 hrs by sulforhodamine B assay relative to control
# NCI-H23 = experiment: Growth inhibition of human NCI-H23 cells at 10 uM incubated for 48 hrs by sulforhodamine B assay relative to control
# NCI-H322M = experiment: Growth inhibition of human NCI-H322M cells at 10 uM incubated for 48 hrs by sulforhodamine B assay relative to control
# DU-145 = experiment: Growth inhibition of human DU-145 cells at 10 uM incubated for 48 hrs by sulforhodamine B assay relative to control
# SK-OV-3 = experiment: Growth inhibition of human SK-OV-3 cells at 10 uM incubated for 48 hrs by sulforhodamine B assay relative to control
# A549 = experiment: Growth inhibition of human A549/ATCC cells at 10 uM incubated for 48 hrs by sulforhodamine B assay relative to control
# MDA-MB-231 = experiment: Growth inhibition of human MDA-MB-231 cells at 10 uM incubated for 48 hrs by sulforhodamine B assay relative to control
# SF-539 = experiment: Growth inhibition of human SF-539 cells at 10 uM incubated for 48 hrs by sulforhodamine B assay relative to control
# SNB-19 = experiment: Growth inhibition of human SNB-19 cells at 10 uM incubated for 48 hrs by sulforhodamine B assay relative to control
# TK-10 = experiment: Growth inhibition of human TK-10 cells at 10 uM incubated for 48 hrs by sulforhodamine B assay relative to control
# UACC-257 = experiment: Growth inhibition of human UACC-257 cells at 10 uM incubated for 48 hrs by sulforhodamine B assay relative to control
# UO-31 = experiment: Growth inhibition of human UO-31 cells at 10 uM incubated for 48 hrs by sulforhodamine B assay relative to control
# MDA-MB-468 = experiment: Growth inhibition of human MDA-MB-468 cells at 10 uM incubated for 48 hrs by sulforhodamine B assay relative to control
# Hs-578T = experiment: Growth inhibition of human Hs-578T cells at 10 uM incubated for 48 hrs by sulforhodamine B assay relative to control
# OVCAR-5 = experiment: Growth inhibition of human OVCAR-5 cells at 10 uM incubated for 48 hrs by sulforhodamine B assay relative to control
# KM12 = experiment: Growth inhibition of human KM12 cells at 10 uM incubated for 48 hrs by sulforhodamine B assay relative to control
# IGROV-1 = experiment: Growth inhibition of human IGROV-1 cells at 10 uM incubated for 48 hrs by sulforhodamine B assay relative to control
# SN12C = experiment: Growth inhibition of human SN12C cells at 10 uM incubated for 48 hrs by sulforhodamine B assay relative to control
# SR = experiment: Growth inhibition of human SR cells at 10 uM incubated for 48 hrs by sulforhodamine B assay relative to control
# HCC 2998 = experiment: Growth inhibition of human HCC 2998 cells at 10 uM incubated for 48 hrs by sulforhodamine B assay relative to control
# SK-MEL-5 = experiment: Growth inhibition of human SK-MEL-5 cells at 10 uM incubated for 48 hrs by sulforhodamine B assay relative to control
# OVCAR-8 = experiment: Growth inhibition of human OVCAR-8 cells at 10 uM incubated for 48 hrs by sulforhodamine B assay relative to control
# OVCAR-3 = experiment: Growth inhibition of human OVCAR-3 cells at 10 uM incubated for 48 hrs by sulforhodamine B assay relative to control
# UACC-62 = experiment: Growth inhibition of human UACC-62 cells at 10 uM incubated for 48 hrs by sulforhodamine B assay relative to control
# MOLT-4 = experiment: Growth inhibition of human MOLT-4 cells at 10 uM incubated for 48 hrs by sulforhodamine B assay relative to control
# T47D = experiment: Growth inhibition of human T47D cells at 10 uM incubated for 48 hrs by sulforhodamine B assay relative to control
# U-251 = experiment: Growth inhibition of human U-251 cells at 10 uM incubated for 48 hrs by sulforhodamine B assay relative to control
# HL-60(TB) = experiment: Growth inhibition of human HL-60(TB) cells at 10 uM incubated for 48 hrs by sulforhodamine B assay relative to control
# RXF 393 = experiment: Growth inhibition of human RXF 393 cells at 10 uM incubated for 48 hrs by sulforhodamine B assay relative to control
# RPMI-8226 = experiment: Growth inhibition of human RPMI-8226 cells at 10 uM incubated for 48 hrs by sulforhodamine B assay relative to control
# 786-0 = experiment: Growth inhibition of human 786-0 cells at 10 uM incubated for 48 hrs by sulforhodamine B assay relative to control
# M14 = experiment: Growth inhibition of human M14 cells at 10 uM incubated for 48 hrs by sulforhodamine B assay relative to control
# MDA-MB-435 = experiment: Growth inhibition of human MDA-MB-435 cells at 10 uM incubated for 48 hrs by sulforhodamine B assay relative to control
smiles,measurement,setting,value
Cc1cc(C)n(CC(=O)Nc2ccc(-c3nc4ccccc4s3)cc2)n1,inhibition of growth at 10 µM,SF-295,-3.17%
same,inhibition of growth at 10 µM,NCI-H226,-0.25%
same,inhibition of growth at 10 µM,OVCAR-4,2.19%
same,inhibition of growth at 10 µM,NCI-H522,-2.77%
same,inhibition of growth at 10 µM,MCF7,73.4%
same,inhibition of growth at 10 µM,K562,-0.21%
same,inhibition of growth at 10 µM,PC-3,13.2%
same,inhibition of growth at 10 µM,ACHN,-14.4%
same,inhibition of growth at 10 µM,Malme-3M,-7.85%
same,inhibition of growth at 10 µM,HT-29,-8.3%
same,inhibition of growth at 10 µM,SF-268,-0.26%
same,inhibition of growth at 10 µM,BT-549,-15.3%
same,inhibition of growth at 10 µM,NCI-H23,6.19%
same,inhibition of growth at 10 µM,NCI-H322M,0.12%
same,inhibition of growth at 10 µM,DU-145,-2.89%
same,inhibition of growth at 10 µM,SK-OV-3,-14%
same,inhibition of growth at 10 µM,A549,5.29%
same,inhibition of growth at 10 µM,MDA-MB-231,-7.87%
same,inhibition of growth at 10 µM,SF-539,1.4%
same,inhibition of growth at 10 µM,SNB-19,0.22%
same,inhibition of growth at 10 µM,TK-10,-6.36%
same,inhibition of growth at 10 µM,UACC-257,-7.21%
same,inhibition of growth at 10 µM,UO-31,16.2%
same,inhibition of growth at 10 µM,MDA-MB-468,103%
same,inhibition of growth at 10 µM,Hs-578T,-13.4%
same,inhibition of growth at 10 µM,OVCAR-5,-4.65%
same,inhibition of growth at 10 µM,KM12,-0.27%
same,inhibition of growth at 10 µM,IGROV-1,2.57%
same,inhibition of growth at 10 µM,SN12C,-2.13%
same,inhibition of growth at 10 µM,SR,0.6%
same,inhibition of growth at 10 µM,HCC 2998,7.15%
same,inhibition of growth at 10 µM,SK-MEL-5,3.6%
same,inhibition of growth at 10 µM,OVCAR-8,0.31%
same,inhibition of growth at 10 µM,OVCAR-3,-1.21%
same,inhibition of growth at 10 µM,UACC-62,4.67%
same,inhibition of growth at 10 µM,MOLT-4,16%
same,inhibition of growth at 10 µM,T47D,6.7%
same,inhibition of growth at 10 µM,U-251,10.3%
same,inhibition of growth at 10 µM,HL-60(TB),-2.97%
same,inhibition of growth at 10 µM,RXF 393,-29%
same,inhibition of growth at 10 µM,RPMI-8226,2.85%
same,inhibition of growth at 10 µM,786-0,-5.8%
same,inhibition of growth at 10 µM,M14,-11.3%
same,inhibition of growth at 10 µM,MDA-MB-435,-7.5%
O=C(Cn1ccnc1)Nc1ccc(-c2nc3ccccc3s2)cc1,inhibition of growth at 10 µM,SF-295,34.5%
same,inhibition of growth at 10 µM,NCI-H226,33.4%
same,inhibition of growth at 10 µM,OVCAR-4,65.2%
same,inhibition of growth at 10 µM,NCI-H522,25.3%
same,inhibition of growth at 10 µM,MCF7,38.7%
same,inhibition of growth at 10 µM,K562,60.4%
same,inhibition of growth at 10 µM,PC-3,34.1%
same,inhibition of growth at 10 µM,ACHN,9.7%
same,inhibition of growth at 10 µM,HT-29,6.65%
same,inhibition of growth at 10 µM,SF-268,18.9%
same,inhibition of growth at 10 µM,BT-549,34.9%
same,inhibition of growth at 10 µM,NCI-H23,42.6%
same,inhibition of growth at 10 µM,NCI-H322M,1.71%
same,inhibition of growth at 10 µM,DU-145,18.9%
same,inhibition of growth at 10 µM,SK-OV-3,12.2%
same,inhibition of growth at 10 µM,A549,29.7%
same,inhibition of growth at 10 µM,MDA-MB-231,19.9%
same,inhibition of growth at 10 µM,SF-539,18.7%
same,inhibition of growth at 10 µM,SNB-19,23.6%
same,inhibition of growth at 10 µM,TK-10,18.2%
same,inhibition of growth at 10 µM,UACC-257,32.4%
same,inhibition of growth at 10 µM,UO-31,39.6%
same,inhibition of growth at 10 µM,MDA-MB-468,99.2%
same,inhibition of growth at 10 µM,Hs-578T,13.1%
same,inhibition of growth at 10 µM,OVCAR-5,-3.81%
same,inhibition of growth at 10 µM,KM12,15.6%
same,inhibition of growth at 10 µM,IGROV-1,31.1%
same,inhibition of growth at 10 µM,SN12C,15.4%
same,inhibition of growth at 10 µM,SR,63.5%
same,inhibition of growth at 10 µM,HCC 2998,5.1%
same,inhibition of growth at 10 µM,SK-MEL-5,60.8%
same,inhibition of growth at 10 µM,OVCAR-8,19.7%
same,inhibition of growth at 10 µM,OVCAR-3,37.8%
same,inhibition of growth at 10 µM,UACC-62,17.1%
same,inhibition of growth at 10 µM,MOLT-4,31.9%
same,inhibition of growth at 10 µM,T47D,48.6%
same,inhibition of growth at 10 µM,U-251,28.1%
same,inhibition of growth at 10 µM,HL-60(TB),22.7%
same,inhibition of growth at 10 µM,RXF 393,-2.19%
same,inhibition of growth at 10 µM,RPMI-8226,48%
same,inhibition of growth at 10 µM,786-0,22%
same,inhibition of growth at 10 µM,M14,5.59%
same,inhibition of growth at 10 µM,MDA-MB-435,18.4%
